Measured values as given in patent US20100317850A1 (priority 2008, published 2010).
pIC50: −log10 of the molar value.

Test system: Aβ42 production
Experiment: Quantification of Aβ peptide in culture of neurons from rat fetus brain (Aβ ELISA)
Format: cell-based
Settings: Neuron, 72 h; rat primary neuronal culture (cerebral cortex, embryonic day 18 Wistar rats); medium collected three days after addition of the compound; Aβx-42 ELISA; read-out: Aβ42 production reducing effect IC50
Procedure, shortened: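 Primary cortical neurons from embryonic day 18 Wistar rats were cultured 4 days, then exposed to compound in Neurobasal/B27 without 2-ME, final DMSO ≤1%. After three days, medium was collected and Aβx-42 measured undiluted by sandwich ELISA.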

Structure (SMILES)	pIC50
NC1=N[C@@]2(c3cc(NC(=O)c4ccc(C(F)F)cn4)ccc3F)CCC[C@H]2CS1 (single isomer, unassigned) [Example 141, N-[3-((4aR*,7aS*)-2-amino-4a,5,6,7-tetrahydro-4H-cyclopenta[d][1,3]thiazin-7a-yl)-4-fluorophenyl]-5-difluoromethylpyridine-2-carboxamide]	7.80
Cn1cc(-c2ccc(C(=O)Nc3ccc(F)c([C@]45CCC[C@H]4CSC(N)=N5)c3)nc2)cn1 [Example 239]	6.62
NC1=N[C@@]2(c3cccc(-c4cncnc4)c3)CN(c3cnccn3)C[C@H]2CS1 [Example 230]	6.69
NC1=N[C@@]2(c3cc(NC(=O)c4ncc(F)cc4F)ccc3F)CCCC[C@H]2CS1 (single isomer, unassigned) [Example 105, N-[3-((4aR*,8aS*)-2-amino-4,4a,5,6,7,8-hexahydrobenzo[d][1,3]thiazin-8a-yl)-4-fluorophenyl]-3,5-difluoropyridine-2-carboxamide]	6.92
NC1=N[C@@]2(c3cc(NC(=O)c4ncc(Cl)cc4Cl)ccc3F)CCC[C@H]2CS1 (single isomer, unassigned) [Example 180, N-[3-((4aR*,7aS*)-2-amino-4a,5,6,7-tetrahydro-4H-cyclopenta[d][1,3]thiazin-7a-yl)-4-fluorophenyl]-3,5-dichloropyridine-2-carboxamide]	8.52
NC1=N[C@@]2(c3cc(NC(=O)c4ccc(OCC(F)F)cn4)ccc3F)CCC[C@H]2CS1 (single isomer, unassigned) [Example 182, N-[3-((4aR*,7aS*)-2-amino-4a,5,6,7-tetrahydro-4H-cyclopenta[d][1,3]thiazin-7a-yl)-4-fluorophenyl]-5-(2,2-difluoroethoxy)-pyridine-2-carboxamide]	7.05
NC1=N[C@@]2(c3cc(NC(=O)c4ncc(Br)cn4)ccc3F)CCC[C@H]2CS1 (single isomer, unassigned) [Example 176, N-[3-((4aR*,7aS*)-2-amino-4a,5,6,7-tetrahydro-4H-cyclopenta[d][1,3]thiazin-7a-yl)-4-fluorophenyl]-5-bromopyrimidine-2-carboxamide]	8.00
CO[C@@H]1C[C@H]2CSC(N)=N[C@@]2(c2cc(NC(=O)c3ccc(OC(F)F)cn3)ccc2F)C1 (relative stereo) [Example 100, (+)-N-[3-((4aR*,6R*,7aS*)-2-amino-6-methoxy-4a,5,6,7-tetrahydro-4H-cyclopenta[d][1,3]thiazin-7a-yl)-4-fluorophenyl]-5-difluoromethoxypyridine-2-carb oxamide]	8.70
N#Cc1ccc(C(=O)Nc2cc(Cl)cc([C@]34CCC[C@H]3CSC(N)=N4)c2)nc1 (racemic) [Example 240, (±)-N-[3-((4aR*,7aS*)-2-amino-4a,5,6,7-tetrahydro-4H-cyclopenta[d][1,3]thiazin-7a-yl)-5-chlorophenyl]-5-cyanopyridine-2-carboxamide]	7.41
CO[C@H]1CC[C@]2(c3cc(NC(=O)c4ccc(C#N)cn4)ccc3F)N=C(N)SC[C@@H]2C1 (relative stereo) [Example 204, N-[3-((4aR*,6S*,8aS*)-2-amino-6-methoxy-4,4a,5,6,7,8-hexahydrobenzo[d][1,3]thiazin-8a-yl)-4-fluorophenyl]-5-cyanopyridine-2-carboxamide]	7.64
NC1=N[C@@]2(c3cc(NC(=O)c4cnc(OCF)cn4)ccc3F)CCC[C@H]2CS1 (relative stereo) [Example 21, N-[3-((4aR*,7aS*)-2-amino-4a,5,6,7-tetrahydro-4H-cyclopenta[d][1,3]thiazin-7a-yl)-4-fluorophenyl]-5-fluoromethoxypyrazine-2-carboxamide]	7.89
NC1=N[C@@]2(c3cc(NC(=O)c4cnc(OC(F)F)cn4)ccc3F)C[C@H](F)C[C@H]2CS1 (relative stereo) [Example 98, (+)-N-[3-((4aR*,6R*,7aS*)-2-amino-6-fluoro-4a,5,6,7-tetrahydro-4H-cyclopenta[d][1,3]thiazin-7a-yl)-4-fluorophenyl]-5-difluoromethoxypyrazine-2-carboxamide]	9.00
NC(=O)c1ccc(C(=O)Nc2ccc(F)c([C@]34CCC[C@H]3CSC(N)=N4)c2)nc1 [Example 129]	7.19
COc1cnc(C(=O)Nc2ccc(F)c([C@]34CCC[C@H]3CSC(N)=N4)c2)cn1 (single isomer, unassigned) [Example 177, N-[3-((4aR*,7aS*)-2-amino-4a,5,6,7-tetrahydro-4H-cyclopenta[d][1,3]thiazin-7a-yl)-4-fluorophenyl]-5-methoxypyrazine-2-carboxamide]	7.74
NC1=N[C@@]2(c3cc(NC(=O)c4ncc(Cl)cc4Cl)ccc3F)CCCC[C@H]2CS1 (single isomer, unassigned) [Example 257, N-[3-((4aR*,8aS*)-2-amino-4,4a,5,6,7,8-hexahydrobenzo[d][1,3]thiazin-8a-yl)-4-fluorophenyl]-3,5-dichloropyridine-2-carboxamide]	7.77
NC1=N[C@@]2(c3cccc(-c4cccnc4F)c3)CN(c3ccccc3)C[C@H]2CS1 (racemic) [Example 36, (±)-(4aR,7aS)-7a-[3-(2-fluoro-pyridin-3-yl)phenyl]-6-phenyl-4,4a,5,6,7,7a-hexahydropyrrolo[3,4-d][1,3]thiazin-2-ylamine]	6.42
CCCCO[C@H]1C[C@H]2CSC(N)=N[C@@]2(c2cc(NC(=O)c3ccc(C#N)cn3)ccc2F)C1 (relative stereo) [Example 109, (+)-N-[3-((4aR*,6S*,7aS*)-2-amino-6-butoxy-4a,5,6,7-tetrahydro-4H-cyclopenta[d][1,3]thiazin-7a-yl)-4-fluorophenyl]-5-cyanopyridine-2-carboxamide]	8.74
NC1=N[C@@]2(c3cc(NC(=O)c4cnc(OCC(F)F)cn4)ccc3F)CCC[C@H]2CS1 (single isomer, unassigned) [Example 181, N-[3-((4aR*,7aS*)-2-amino-4a,5,6,7-tetrahydro-4H-cyclopenta[d][1,3]thiazin-7a-yl)-4-fluorophenyl]-5-(2,2-difluoroethoxy)-pyrazine-2-carboxamide]	7.33
NC1=N[C@@]2(c3cc(NC(=O)c4cnc(OCF)cn4)ccc3F)C[C@H](CF)OC[C@H]2CS1 [Example 41, N-[3-((4aS,7R,8aS)-2-amino-7-fluoromethyl-4a,5,7,8-tetrahydro-4H-6-oxa-3-thia-1-azanaphthalen-8a-yl)-4-fluorophenyl]-5-fluoromethoxypyrazine-2-carboxamide]	8.22
CC[C@H]1OC[C@]2(c3cc(NC(=O)c4cnc(C(F)F)cn4)ccc3F)N=C(N)SC[C@H]12 (relative stereo) [Example 53, N-[3-((4aS*,5R*,7aS*)-2-amino-5-ethyl-4a,5-dihydro-4H-furo[3,4-d][1,3]thiazin-7a-yl)-4-fluorophenyl]-5-difluoromethylpyrazine-2-carboxamide]	8.70
NC1=N[C@@]2(c3cccc(-c4cccnc4F)c3)CN(C(=O)C3CC3)C[C@H]2CS1 [Example 84]	6.05
NC1=N[C@@]2(c3cc(-c4cccnc4F)c(F)cc3F)CCCC[C@H]2CS1 (racemic) [Example 245, (±)-(4aR*,8aS*)-8a-[2,4-difluoro-5-(2-fluoropyridin-3-yl)phenyl]-4a,5,6,7,8,8a-hexahydro-4H-benzo[d][1,3]thiazin-2-ylamine]	5.94
